# Read-outs that look alike come from different tables or passages of the source.
# Key:
# [1] = system: R. microplus kinin receptor; test: High-throughput dual-addition calcium fluorescence screen on BMLK3 cells; type: cell-based, Rhipicephalus microplus; conditions: for antagonist Io (%): compound 2 μmol L^−1, 5 min, then FFFSWGa 500 nmol L^−1; for agonist NPA (%): compound 2 μmol L^−1, first addition, relative to FFFSWGa 500 nmol L^−1
# [2] = target: recombinant tick kinin receptor (BMLK3) (Rhipicephalus microplus, UniProt Q9NHA4); test: Dose-response dual-addition calcium fluorescence assay on BMLK3 cells; type: cell-based; conditions: for validation mark in dose-response assay: Table 3; for EC50: read-out: BMLK3 EC50
# [3] = system: vector-only (V/O) CHO-K1 cells; test: Dose-response dual-addition calcium fluorescence assay on vector-only cells; type: cell-based; conditions: for IC50: read-out: V/O antagonist IC50
# [4] = first addition, 20 concentrations 28 nM-25 μM
# [5] = second addition Rhimi-K-1 1 μmol L^−1, read-out: BMLK3 IC50
# [6] = V/O cells, second addition Rhimi-K-1 1 μmol L^−1
# [7] = virtual hit molecules, dual-addition assay, recombinant tick kinin receptor (BMLK3) cells
# [8] = virtual hit molecules, dual-addition assay, recombinant tick kinin receptor (BMLK3) cells, read-out: BMLK3 antagonist IC50
# [9] = virtual hit molecules, dual-addition assay, vector-only cell (V/O)
# recombinant tick kinin receptor (BMLK3), sequence (Q9NHA4 entry or part of it): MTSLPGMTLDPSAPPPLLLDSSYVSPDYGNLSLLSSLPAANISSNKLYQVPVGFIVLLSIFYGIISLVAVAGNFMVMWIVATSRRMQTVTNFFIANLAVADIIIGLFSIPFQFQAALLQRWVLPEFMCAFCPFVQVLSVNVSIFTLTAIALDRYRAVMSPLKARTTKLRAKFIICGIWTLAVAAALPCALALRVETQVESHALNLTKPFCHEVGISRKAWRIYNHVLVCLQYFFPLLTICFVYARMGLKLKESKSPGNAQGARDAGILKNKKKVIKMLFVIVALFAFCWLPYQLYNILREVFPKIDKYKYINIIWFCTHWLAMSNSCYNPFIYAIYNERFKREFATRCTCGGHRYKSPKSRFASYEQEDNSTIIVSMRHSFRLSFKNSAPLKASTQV
SMILES,"EC50 [2, 4] [µM]","IC50 [2, 5] [µM]","EC50 [2, 7] [µM]","IC50 [2, 8] [µM]",antagonist Io (%) [1] [%],validation mark in dose-response assay [2],"EC50 ([3]; V/O cells, first addition) [µM]","IC50 [3, 6] [µM]",agonist NPA (%) [1] [%],"EC50 [3, 9] [µM]","IC50 [3, 9] [µM]"
Cc1cc2ncn(CCCCSc3ccccc3)c2cc1C [SACC-0025692],> 25,0.765,,,42,*** (molecules which are either off-target or of low activity (<25 μM)),9.54,0.112,,,
CC(=O)c1cc(C(=O)N[C@H](C)c2nc(-c3cccnc3)n[nH]2)cs1 [SACC-0007370],1.78,1.42,,,60,*** (molecules which are either off-target or of low activity (<25 μM)),< 0.0285,> 25,,,
CCOC(=O)c1[nH]c2ccc(Br)cc2c1N=C(C)N(C)C [SACC-0055903],6.76,6.02,,,,*** (molecules which are either off-target or of low activity (<25 μM)),3.68,2.63,75,,
C=CCn1cnnc1SCC1CC1(Cl)Cl (stereo not shown) [SACC-0063031],0.246,0.242,,,80,*** (molecules which are either off-target or of low activity (<25 μM)),17,4.45,,,
O=C(Nc1ccc(I)cc1)C(Cl)(Cl)Cl [SACC-0062945],< 0.0285,0.128,,,,*** (molecules which are either off-target or of low activity (<25 μM)),0.0604,3.84,61,,
CCOc1ccc(NC(=N)/N=c2/nc(C(F)(F)F)cc(C)[nH]2)cc1 [SACC-0060049],4.55,> 25,,,,*** (molecules which are either off-target or of low activity (<25 μM)),1.93,0.243,104,,
Cc1n[nH]c(C)c1N1C(=O)c2cccc3c(N4CCCCCC4)ccc(c23)C1=O [SACC-0027895],> 25,> 25,,,,*** (molecules which are either off-target or of low activity (<25 μM)),> 25,> 25,84,,
C=CCNC(=S)NNC1=CC[C@@H](c2ccccc2)CC1 [SACC-0010978],,,> 25,9.82,,,,,,0.0677,12.2
c1ccc(-c2csc3ncnc(Nc4ccc5c(c4)OCCO5)c23)cc1 [SACC-0011565],,,0.0417,> 25,,,,,,> 25,1.22
Cc1nc(-c2ccc(CNc3ncnc4sccc34)o2)cs1 [SACC-0039825],,,< 0.0285,8.06,,,,,,> 25,0.334
COc1ccccc1NC(=O)c1cn(CCC#N)nc1-c1ccc(C)c(C)c1 [SACC-0095111],> 25,3.32,,,,*** (molecules which are either off-target or of low activity (<25 μM)),> 25,7.33,71,,
CC1=CC(=NNC(=S)NCc2ccccc2)CC1 [SACC-0029249],,,> 25,1.88,,,,,,> 25,< 0.0285
Cc1cc(N=CN(C)C)c2ccccc2n1 [SACC-0068485],0.743,4.15,,,56,*** (molecules which are either off-target or of low activity (<25 μM)),3.77,0.549,,,
O=C(CSC1=NCCS1)c1ccc(Cl)cc1 [SACC-0064624],0.504,0.21,,,76,*** (molecules which are either off-target or of low activity (<25 μM)),> 25,> 25,,,
Cc1oc(S(=O)(=O)N2CCOCC2)cc1C(=O)Nc1ccc(F)cc1 [SACC-0026188],< 0.0285,0.225,,,67,*** (molecules which are either off-target or of low activity (<25 μM)),0.154,> 25,,,
CN1/C(=C/C=C/c2ccc3ccccc3[n+]2C)C=Cc2ccccc21 [SACC-0072383],,,0.326,0.501,,,,,,0.294,> 25
c1ccc(-c2csc3ncnc(N4CCCC4c4cccnc4)c23)cc1 (stereo not shown) [SACC-0011206],,,> 25,6.54,,,,,,17.5,0.985
CCC(CO)Nc1nc(CN2CCCCC2)nc2scc(-c3ccccc3)c12 (stereo not shown) [SACC-0046099],,,> 25,8.31,,,,,,3.58,2.45
CC(C)(C)c1ccc(C(=O)NNC(=S)NC(=O)c2cccnc2)cc1 [SACC-0015467],4.32,6.3,,,,*** (molecules which are either off-target or of low activity (<25 μM)),3.45,7.1,70,,
Cc1ccc(S(=O)(=O)Nc2nc(CN3CCCC3)nc3sc(C)c(C)c23)cc1 [SACC-0025777],,,> 25,0.106,,,,,,1.57,> 25
O=[N+]([O-])c1ccc2nc(Nc3ccc(Br)cc3)c(Nc3ccc(Br)cc3)nc2c1 [SACC-0005102],,,1.08,0.0832,,,,,,0.485,0.177
CCCC1=CC(=C2NNC(C)=C2c2ccc(C(=O)OCC)o2)C(O)=CC1=O [SACC-0048694],0.281,> 25,,,65,*** (molecules which are either off-target or of low activity (<25 μM)),6.87,17.5,,,
CC1(C)CSC(=NCc2ccccc2)N1C(=O)Cc1noc2ccccc12 [SACC-0024181],9.01,0.252,,,,*** (molecules which are either off-target or of low activity (<25 μM)),8.1,6.27,48,,
CCc1cc2c(NCc3ccco3)nc(C)nc2s1 [SACC-0047526],,,> 25,> 25,,,,,,> 25,> 25
Clc1ccc(-c2csc3ncnc(N4CCN(c5ccccn5)CC4)c23)cc1 [SACC-0064924],,,17.3,< 0.0285,,,,,,11.9,> 25

# The next lines start with results.
"EC50 [2, 4] [µM]","IC50 [2, 5] [µM]","EC50 [2, 7] [µM]","IC50 [2, 8] [µM]",SMILES,antagonist Io (%) [1] [%],validation mark in dose-response assay [2],"EC50 ([3]; V/O cells, first addition) [µM]","IC50 [3, 6] [µM]",agonist NPA (%) [1] [%],"EC50 [3, 9] [µM]","IC50 [3, 9] [µM]"
0.974,1.88,,,COc1ccccc1NC(=O)c1cc2ccccc2cc1OCc1nnnn1C1CC1 [SACC-0095102],,*** (molecules which are either off-target or of low activity (<25 μM)),< 0.0285,2.21,145,,
,,> 25,< 0.0285,N#CC(=C(O)c1ccc(-c2ccc(Cl)cc2Cl)o1)c1nc2ccccc2c(=O)[nH]1 [SACC-0112961],,,,,,0.243,> 25
12,10.9,,,O=C(CCc1nc(-c2cccs2)no1)Nc1ccc(-n2cnc3ccccc32)nc1 [SACC-0114394],,*** (molecules which are either off-target or of low activity (<25 μM)),4.19,4.32,152,,
,,16.6,1.41,S=C(NCc1ccccc1)NN=C1CCC(c2ccccc2)CC1 (stereo not shown) [SACC-0131532],,,,,,> 25,> 25
0.299,> 25,,,O=C(Cn1cnc2ccccc21)NCc1ccc(OCc2ccccc2)cc1 [SACC-0115325],83,*** (molecules which are either off-target or of low activity (<25 μM)),> 25,> 25,,,
> 25,> 25,,,COc1ccccc1-n1nnnc1S[C@@H](C)C(=O)c1ccc2c(c1)CCN2C(C)=O [SACC-0095062],,*** (molecules which are either off-target or of low activity (<25 μM)),> 25,< 0.0285,47,,
> 25,> 25,,,COc1ccc(-c2nc(CN3CCN(C(=O)c4ccc5c(c4)NC(=O)[C@H](C)S5)CC3)cs2)cc1 [SACC-0088454],57,*** (molecules which are either off-target or of low activity (<25 μM)),> 25,14.4,,,
1.74,< 0.0285,,,O=C(NC(=S)NNC(=O)c1cc(-c2ccccc2)nc2ccccc12)c1cccs1 [SACC-0117741],,*** (molecules which are either off-target or of low activity (<25 μM)),1.89,1.49,127,,
,,> 25,8.47,COc1cc2c(cc1OC)CN(c1ncnc3scc(-c4ccc(Cl)cc4)c13)CC2 [SACC-0095849],,,,,,0.393,0.914
,,1.11,< 0.0285,COc1ccc(C=Nn2c(C(F)(F)F)n[nH]c2=S)cc1 [SACC-0087120],,,,,,3.16,> 25
< 0.0285,> 25,,,O=C(O)COc1ccccn1 [SACC-0126930],,*** (molecules which are either off-target or of low activity (<25 μM)),0.761,< 0.0285,133,,
,,0.124,13.2,O=C(c1ccco1)N1CCN(c2cccc3scc(-c4cccs4)c23)CC1 [SACC-0117388],,,,,,1.78,8.39
